Columns and labels:
[1] = Aripiprazole loading into ammonium sulfate or sodium sulfate liposomes; type: physicochemical; settings: ratio of ammonium sulfate to sodium sulfate liposomes
Experimental: Liposomes (HSPC/Chol/PEG-DSPE 3/2/0.15 mol/mol/mol) containing 250 mM ammonium sulfate or 250 mM sodium sulfate were diluted in 1 mL of 50 mM citric acid, 10% (wt/wt) sucrose, pH 4.0 to a concentration of 6 mM phospholipid. 0.3 mg of aripiprazole was added from a stock solution of 15 mg/mL in DMSO, so that the final DMSO concentration was 2% (v/v). Fine precipitates were immediately observed after the drug was added to both liposome samples. The samples were heated at 65° C. for 30 min, the cooled on ice. The samples were filtered through a 0.2 um polyethersulfone syringe filter to remove any drug precipitates, followed by purification on a Sephadex G25 column equilibrated with HBS, pH 6.5 to remove any soluble extraliposome drug. The turbid fraction was collected and analyzed for lipid and drug as described above.

[2] = Aripiprazole precipitates from various solvents, absorbance at 600 nm with liposomes; type: physicochemical; settings: drug initially dissolved in DMSO, 1-4-methylpyrrolidone, diethylenemonoethylether or polyethyleneglycol (MW400); 7.5% solvent; 65 C 30 min
Experimental: Aripiprazole was dissolved in a range of solvents indicated below at 4 mg/mL. Liposomes composed of HSPC/Chol/PEG-DSPE (3/2/0.15 mol/mol/mol) that were prepared in 250 mM ammonium sulfate were used and diluted to 6 mM in Hepes buffered sucrose 10% (wt/wt) (HBSuc pH 6.5). 0.3 mg of drug was introduced by slow addition of each solvent while vortexing. The final solvent concentration was 7.5% for all samples. As controls, the drug was added from each solvent to the same volume of HBSuc pH 6.5 without the liposomes. The samples were heated at 65° C. for 30 min then cooled on ice.

% Efficiency NH4SO4/NaSO4 [1]: 49.3
clarification of drug precipitate on incubation with liposomes (absorbance at 600 nm) [2]: clarified the drug precipitate
Compound: O=C1CCc2ccc(OCCCCN3CCN(c4cccc(Cl)c4Cl)CC3)cc2N1 [aripiprazole]
